Patent US6737383B1, “Herbicidal oxadiazolidines” (priority 1999, dated 2004)

Assays:
purple nutsedge = assay: Test B pre/postemergence purple nutsedge; assay type: in vivo, Cyperus rotundus
Summary of the method: (§1)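 Herbicidal effect was estimated by eye on a ten-point control scale after plants spent twelve to sixteen days in a greenhouse following soil or foliar treatment. Foliar sprays targeted plants at one to four leaves; all doses were formulated in a non-phytotoxic solvent with surfactant.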

crabgrass = assay: Test B pre/postemergence crabgrass; assay type: in vivo, Digitaria sanguinalis
Summary of the method: as §1

bedstraw = assay: Test B pre/postemergence bedstraw; assay type: in vivo, Galium aparine
Summary of the method: as §1

surinam grass = assay: Test B pre/postemergence surinam grass; assay type: in vivo, Brachiaria decumbens
Summary of the method: as §1

soybean = assay: Test B pre/postemergence soybean; assay type: in vivo, Glycine max
Summary of the method: as §1

giant foxtail = assay: Test B pre/postemergence giant foxtail; assay type: in vivo, Setaria faberii
Summary of the method: as §1

morningglory = assay: Test B pre/postemergence morningglory; assay type: in vivo, Ipomoea hederacea
Summary of the method: as §1

pigweed = assay: Test B pre/postemergence pigweed; assay type: in vivo, Amaranthus retroflexus
Summary of the method: as §1

wild oat = assay: Test B pre/postemergence wild oat; assay type: in vivo, Avena fatua
Summary of the method: as §1

smallflower flatsedge = assay: Test B flood test smallflower flatsedge; assay type: in vivo, Cyperus difformis
Summary of the method: (§2)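 Read-out is a visual response score from 0 (no effect) to 10 (complete control), assigned by comparison with untreated controls. Treatment was applied at the 2-leaf stage, and plants stayed in the greenhouse for twelve to sixteen days before scoring.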

corn = assay: Test B pre/postemergence corn; assay type: in vivo, Zea mays
Summary of the method: as §1

cocklebur = assay: Test B pre/postemergence cocklebur; assay type: in vivo, Xanthium strumarium
Summary of the method: as §1

sugar beet = assay: Test B pre/postemergence sugar beet; assay type: in vivo, Beta vulgaris
Summary of the method: as §1

rice = assay: Test B flood test rice; assay type: in vivo, Oryza sativa
Summary of the method: as §2

duck salad = assay: Test B flood test duck salad; assay type: in vivo, Heteranthera limosa
Summary of the method: as §2

blackgrass = assay: Test B pre/postemergence blackgrass; assay type: in vivo, Alopecurus myosuroides
Summary of the method: as §1

[1] = Preemergence, Rate 62 g/ha, scale of 0 to 10 where 0 is no effect and 10 is complete control
[2] = Preemergence, Rate 250 g/ha, scale of 0 to 10 where 0 is no effect and 10 is complete control
[3] = Preemergence, Rate 500 g/ha, scale of 0 to 10 where 0 is no effect and 10 is complete control
[4] = Rate 62 g/ha, Postemergence, scale of 0 to 10 where 0 is no effect and 10 is complete control
[5] = Rate 125 g/ha, Postemergence, scale 0 to 10
[6] = Rate 125 g/ha, Preemergence, scale of 0 to 10 where 0 is no effect and 10 is complete control
[7] = Rate 500 g/ha, Postemergence, scale 0 to 10, 0 no effect, 10 complete control
[8] = Rate 62 g/ha, headed Pre-emergence (flood test species), scale 0 to 10 (0 no effect, 10 complete control)
[9] = Rate 125 g/ha, Pre-emergence, flood test species, scale 0 to 10 where 0 is no effect and 10 is complete control
[10] = Rate 250 g/ha, Pre-emergence, flood-test species, scale 0 to 10, 0 is no effect, 10 is complete control
[11] = Rate 500 g/ha, Pre-emergence, flood test species, scale 0 to 10 (0 no effect, 10 complete control)

CCc1ccc(N(C(=O)n2oc(=O)n(-c3ccccc3C)c2=O)C(C)C)cc1 [Compound 230]
Nutsedge plant response rating (purple nutsedge; [1]): 0
Nutsedge plant response rating (purple nutsedge; [2]): 0
Plant response rating, Nutsedge (purple nutsedge; [3]): 0
Nutsedge plant response rating (purple nutsedge; [4]): 0
Nutsedge plant response rating (purple nutsedge; [5]): 0
Nutsedge plant response rating (purple nutsedge; [6]): 0
Plant response rating (0 to 10; 0 is no effect, 10 is complete control), Nutsedge (purple nutsedge; Rate 250 g/ha, Postemergence): 0
Nutsedge plant response rating (purple nutsedge; [7]): 0
Crabgrass plant response rating (crabgrass; [1]): 1
Crabgrass plant response rating (crabgrass; [2]): 7
Plant response rating, Crabgrass (crabgrass; [3]): 9
Crabgrass plant response rating (crabgrass; [4]): 0
Crabgrass plant response rating (crabgrass; [5]): 0
Crabgrass plant response rating (crabgrass; [6]): 1
Plant response rating (0 to 10; 0 is no effect, 10 is complete control), Crabgrass (crabgrass; Rate 250 g/ha, Postemergence): 0
Crabgrass plant response rating (crabgrass; [7]): 2
Bedstraw plant response rating (bedstraw; [1]): 0
Bedstraw plant response rating (bedstraw; [2]): 0
Plant response rating, Bedstraw (bedstraw; [3]): 0
Bedstraw plant response rating (bedstraw; [4]): 0
Bedstraw plant response rating (bedstraw; [5]): 0
Bedstraw plant response rating (bedstraw; [6]): 0
Plant response rating (0 to 10; 0 is no effect, 10 is complete control), Bedstraw (bedstraw; Rate 250 g/ha, Postemergence): 0
Bedstraw plant response rating (bedstraw; [7]): 0
B. signalgrass plant response rating (surinam grass; [1]): 0
B. signalgrass plant response rating (surinam grass; Preemergence, Rate 250 g/ha, scale 0 to 10, 0 is no effect, 10 is complete control): 0
Plant response rating, B. signalgrass (surinam grass; [3]): 0
B. signalgrass plant response rating (surinam grass; [4]): 0
B. signalgrass plant response rating (surinam grass; Rate 125 g/ha, Postemergence, scale 0 (no effect) to 10 (complete control)): 0
B. signalgrass plant response rating (surinam grass; [6]): 0
Plant response rating (0 to 10; 0 is no effect, 10 is complete control), B. signalgrass (surinam grass; Rate 250 g/ha, Postemergence): 0
B. signalgrass plant response rating (surinam grass; [7]): 0
Soybean plant response rating (soybean; [1]): 0
Soybean plant response rating (soybean; [2]): 0
Plant response rating, Soybean (soybean; [3]): 0
Soybean plant response rating (soybean; [4]): 0
Soybean plant response rating (soybean; [5]): 0
Soybean plant response rating (soybean; [6]): 0
Plant response rating (0 to 10; 0 is no effect, 10 is complete control), Soybean (soybean; Rate 250 g/ha, Postemergence): 4
Soybean plant response rating (soybean; [7]): 5
Giant foxtail plant response rating (giant foxtail; [1]): 2
Giant foxtail plant response rating (giant foxtail; [2]): 8
Plant response rating, Giant foxtail (giant foxtail; [3]): 9
Giant foxtail plant response rating (giant foxtail; [4]): 0
Giant foxtail plant response rating (giant foxtail; [5]): 0
Giant foxtail plant response rating (giant foxtail; [6]): 2
Plant response rating (0 to 10; 0 is no effect, 10 is complete control), Giant foxtail (giant foxtail; Rate 250 g/ha, Postemergence): 0
Giant foxtail plant response rating (giant foxtail; [7]): 1
Morningglory plant response rating (morningglory; [1]): 0
Morningglory plant response rating (morningglory; [2]): 0
Plant response rating, Morningglory (morningglory; [3]): 2
Morningglory plant response rating (morningglory; [4]): 0
Morningglory plant response rating (morningglory; [5]): 2
Morningglory plant response rating (morningglory; [6]): 0
Plant response rating (0 to 10; 0 is no effect, 10 is complete control), Morningglory (morningglory; Rate 250 g/ha, Postemergence): 2
Morningglory plant response rating (morningglory; [7]): 7
Redroot pigweed plant response rating (pigweed; [1]): 0
Redroot pigweed plant response rating (pigweed; [2]): 0
Plant response rating, Redroot pigweed (pigweed; [3]): 0
Redroot pigweed plant response rating (pigweed; [4]): 0
Redroot pigweed plant response rating (pigweed; [5]): 0
Redroot pigweed plant response rating (pigweed; [6]): 0
Plant response rating (0 to 10; 0 is no effect, 10 is complete control), Redroot pigweed (pigweed; Rate 250 g/ha, Postemergence): 0
Redroot pigweed plant response rating (pigweed; [7]): 0
Wild oats plant response rating (wild oat; [1]): 0
Wild oats plant response rating (wild oat; [2]): 0
Plant response rating, Wild oats (wild oat; [3]): 0
Wild oats plant response rating (wild oat; [4]): 0
Wild oats plant response rating (wild oat; [5]): 0
Wild oats plant response rating (wild oat; [6]): 0
Plant response rating (0 to 10; 0 is no effect, 10 is complete control), Wild oats (wild oat; Rate 250 g/ha, Postemergence): 0
Wild oats plant response rating (wild oat; [7]): 0
S. Flatsedge plant response rating (smallflower flatsedge; [8]): 0
S. Flatsedge plant response rating (smallflower flatsedge; [9]): 0
S. Flatsedge plant response rating (smallflower flatsedge; [10]): 0
S. Flatsedge plant response rating (smallflower flatsedge; [11]): 0
Corn plant response rating (corn; [1]): 0
Corn plant response rating (corn; [2]): 0
Plant response rating, Corn (corn; [3]): 0
Corn plant response rating (corn; [4]): 0
Corn plant response rating (corn; [5]): 0
Corn plant response rating (corn; [6]): 0
Plant response rating (0 to 10; 0 is no effect, 10 is complete control), Corn (corn; Rate 250 g/ha, Postemergence): 0
Corn plant response rating (corn; [7]): 0
Cocklebur plant response rating (cocklebur; [1]): 0
Cocklebur plant response rating (cocklebur; [2]): 0
Plant response rating, Cocklebur (cocklebur; [3]): 0
Cocklebur plant response rating (cocklebur; [4]): 0
Cocklebur plant response rating (cocklebur; [5]): 0
Cocklebur plant response rating (cocklebur; [6]): 0
Plant response rating (0 to 10; 0 is no effect, 10 is complete control), Cocklebur (cocklebur; Rate 250 g/ha, Postemergence): 0
Cocklebur plant response rating (cocklebur; [7]): 0
Sugarbeets plant response rating (sugar beet; [1]): 0
Sugarbeets plant response rating (sugar beet; [2]): 0
Plant response rating, Sugarbeets (sugar beet; [3]): 0
Sugarbeets plant response rating (sugar beet; [4]): 0
Sugarbeets plant response rating (sugar beet; [5]): 0
Sugarbeets plant response rating (sugar beet; [6]): 0
Plant response rating (0 to 10; 0 is no effect, 10 is complete control), Sugarbeets (sugar beet; Rate 250 g/ha, Postemergence): 0
Sugarbeets plant response rating (sugar beet; [7]): 0
Rice plant response rating (rice; [8]): 0
Rice plant response rating (rice; [9]): 0
Rice plant response rating (rice; [10]): 0
Rice plant response rating (rice; [11]): 0
Ducksalad plant response rating (duck salad; [8]): 0
Ducksalad plant response rating (duck salad; [9]): 0
Ducksalad plant response rating (duck salad; [10]): 0
Ducksalad plant response rating (duck salad; [11]): 0
Blackgrass plant response rating (blackgrass; [1]): 0
Blackgrass plant response rating (blackgrass; [2]): 0
Plant response rating, Blackgrass (blackgrass; [3]): 2
Blackgrass plant response rating (blackgrass; [4]): 0
Blackgrass plant response rating (blackgrass; [5]): 0
Blackgrass plant response rating (blackgrass; [6]): 0
Plant response rating (0 to 10; 0 is no effect, 10 is complete control), Blackgrass (blackgrass; Rate 250 g/ha, Postemergence): 0
Blackgrass plant response rating (blackgrass; [7]): 0
